One data set concerns DENV-2, ZIKV, and JEV. Put plainly: Viral binding and internalization assays. Format: cell-based. The note with it: A549 cells, MOI 2, viral RNA by RT-qPCR. In general terms: In qPCR the cycle at which signal appears reflects the starting amount.
The subject of a further data set is VSV-eGFP. Put plainly: microbe, parasite or virus in culture. Format: cell-based. Particulars: Vesicular stomatitis virus, A549, 24 h, read-out: EC50 against VSV-eGFP.
Another data set in a line: in vitro. Particulars: African green monkey.
In the next data set the test system is HCV. The data set can be described thus: microbe, parasite or virus in culture. Format: cell-based, hepatitis C virus genotype 2a JFH1. Particulars: Hepatitis C virus, Huh-7, 72 h, read-out: EC50 against HCV.
In data set [1] the test system is DENV-2. The data set can be described thus: Colocalization of DENV E protein and Rab7A, confocal microscopy. Format: cell-based, DENV-2 strain 16681. Particulars: A549 cells, DENV-2 MOI = 20, 50 nM, 12 h.
In data set [2] the test system is DENV-2. Put plainly: DENV-2 infection in AG129 mice. Format: in vivo. The note with it: 0.2 mg/kg i.p.
The next data set addresses V-ATPase (Homo sapiens, UniProt Q9Y487). Put plainly: ATPase activity assay on lysate of treated cells. Format: cell-based. Particulars: A549 cells treated 24 h; C156-P1 100 nM or 1000 nM, PHY34 100 nM, Baf-A1 100 nM; 2 µg total cell protein.
The test system of data set [3] is DENV-2. The data set can be described thus: Time-of-drug-addition assay. Particulars: A549 cells, DENV-2 MOI 2, 50 nM, 48 hpi. Format: cell-based, DENV-2 strain 16681.
In another data set the test system is DENV-4. The data set can be described thus: DENV-4 infection, immunofluorescence assay. Format: cell-based. The note with it: Dengue virus, read-out: EC50 against DENV-4.
The next data set concerns Ad5-eGFP. Format: cell-based, adenovirus type 5.
In the next data set the test system is HSV-1-eGFP. Put plainly: microbe, parasite or virus in culture. The note with it: Human alphaherpesvirus 1, A549, 48 h, read-out: EC50 against HSV-1-eGFP. Format: cell-based, herpes simplex virus type 1.
The test system of another data set is JEV. The data set can be described thus: organism not typed. Format: cell-based, JEV strain SA14-14-2. The note with it: read-out: EC50 against JEV.
Another data set concerns DENV-3. The data set can be described thus: microbe, parasite or virus in culture. Format: cell-based, DENV-3 clone DV3syn_4M. Particulars: Dengue virus, read-out: EC50 against DENV-3.
In a further data set the test system is DENV-1. The data set can be described thus: microbe, parasite or virus in culture. Particulars: Dengue virus, read-out: EC50 against DENV-1. Format: cell-based, DENV-1 clone D19044_7M.

pEC50: −log10 of the molar value. Like-named read-outs stand apart in the source and are kept apart here.

The record followed here is PMC12587552, “A nitrogen-containing diphyllin derivative C156-P1 exhibited broad-spectrum antiviral activity against Flaviviridae viruses by preventing endosomal acidification” (Antimicrobial Agents and Chemotherapy, 2025).

Sequence of V-ATPase (Q9Y487 whole entry, looked up): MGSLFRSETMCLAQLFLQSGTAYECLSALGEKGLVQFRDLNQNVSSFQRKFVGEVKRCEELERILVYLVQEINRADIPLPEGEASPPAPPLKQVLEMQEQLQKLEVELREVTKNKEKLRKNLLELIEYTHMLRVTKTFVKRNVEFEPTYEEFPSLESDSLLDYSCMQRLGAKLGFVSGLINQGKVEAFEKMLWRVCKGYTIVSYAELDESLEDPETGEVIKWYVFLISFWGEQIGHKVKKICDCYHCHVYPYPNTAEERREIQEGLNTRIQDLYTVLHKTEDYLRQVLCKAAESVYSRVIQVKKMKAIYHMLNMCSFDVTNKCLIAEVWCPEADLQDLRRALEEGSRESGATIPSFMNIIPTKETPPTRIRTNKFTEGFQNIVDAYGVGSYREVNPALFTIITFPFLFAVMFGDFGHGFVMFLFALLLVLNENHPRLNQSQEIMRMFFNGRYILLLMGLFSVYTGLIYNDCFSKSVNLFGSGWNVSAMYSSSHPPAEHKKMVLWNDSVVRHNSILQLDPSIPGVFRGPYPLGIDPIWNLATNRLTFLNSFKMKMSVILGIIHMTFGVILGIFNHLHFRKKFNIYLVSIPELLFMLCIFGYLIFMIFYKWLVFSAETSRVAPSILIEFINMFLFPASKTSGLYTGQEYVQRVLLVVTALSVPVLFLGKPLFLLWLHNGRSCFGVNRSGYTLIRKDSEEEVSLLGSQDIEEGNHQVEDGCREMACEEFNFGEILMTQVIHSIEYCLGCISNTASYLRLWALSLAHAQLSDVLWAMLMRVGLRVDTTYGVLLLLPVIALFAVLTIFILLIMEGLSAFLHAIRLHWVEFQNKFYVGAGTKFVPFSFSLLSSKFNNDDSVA

Broadly, the pEC50 is the negative decadic logarithm of the EC50, by convention in mol/L. Turning to `COc1cc2c(OCC#N)c3c(c(-c4ccc5c(c4)OCO5)c2cc1OC)C(=O)OC3` [Compound C156-P1], the “Effect on internalization or binding steps of DENV-2, ZIKV, and JEV” value in the data set on DENV-2, ZIKV, and JEV is reported as “did not exhibit inhibitory effects”. Further, the pEC50 in the data set with VSV-eGFP was 8.03; in the data set with HCV, 8.29; in the data set on DENV-4 (DENV4, A549, 48 h), 8.27; in the data set on DENV-4 (DENV4, Vero, 48 h), 8.26; with HSV-1-eGFP, 8.21; in the data set with JEV (A549, 48 h) it was 8.58. Further, the pEC50 in the data set with JEV (Vero, 48 h) is 8.55; with DENV-3 (DENV3, A549, 48 h), 8.32; in the data set on DENV-3 (DENV3, Vero, 48 h), 8.31; in the data set with DENV-1 (DENV1, A549, 48 h) it was 8.08; in the data set with DENV-1 (DENV1, Vero, 48 h), 8.24. In addition, the CC50 in “in vitro” was determined as 431 nM. The “Colocalization between DENV E protein and Rab7A” value in the data set with DENV-2 [1] was “significantly enhanced the colocalization between DENV E protein and Rab7A”. The “Body weight of DENV-2-infected mice” value in the data set on DENV-2 [2] is on record as “mitigated the decline in body weight”. Besides, in the data set on DENV-2 [2] (days 3, 5, and 7 post-infection, RT-qPCR), the “DENV-2 RNA load in blood” value is listed as “markedly decreased DENV-2 in the blood”. This molecule also yielded a Survival rate in the data set with DENV-2 [2] (DENV-2 1 × 10^6 PFU i.p., until day 15) of 60%. Further, at V-ATPase, the V-ATPase activity result is given as “significantly reduced V-ATPase activity”. In addition, the “Intracellular viral RNA, NS3 protein and extracellular titers, before-, during- and after-incubation groups versus DMSO” value with DENV-2 [3] is given as “significantly reduced levels”. Further, the “Mean fluorescence intensity (MFI) of Ad5-eGFP within the cells” value in the data set with Ad5-eGFP was “slightly increased”. Further, the “Number of Ad5-eGFP-positive cells versus DMSO” value in the data set on Ad5-eGFP is on record as “no significant difference”.
